Results taken from US7910559B2, “Decladinosyl-macrolides with anti-inflammatory activity” (GlaxoSmithKline istrazivacki centar Zagreb d.o.o., priority 2005, dated 2011).
Where two headings read alike, the source gives them in different places.

Key:
Assay type in all cases: cell-based
human TNF-α = experiment: Inhibition of TNF-α production by stimulated human peripheral blood leukocytes in vitro (ELISA); conditions: Homo sapiens, Leukocyte, PBL, read-out: Percentage of inhibition of TNF-α production; for inhibition at 10 µM: compound 10 μM; for inhibition at 50 µM: compound 50 μM
Method: (§1) Substances, used in in vitro experiments, were dissolved in dimethyl sulfoxide (DMSO) (Kemika, Croatia) at concentrations of 50 mM and 10 mM and were further diluted to the final concentrations of […] in 1 mL Dulbecco's modified Eagle medium (DMEM) supplemented with 1% heat inactivated fetal bovine serum (FBS), 1% glutamax, 50 U/ml penicillin, 50 μg/ml streptomycin and 2.5 μg/mL Fungizone (amphotericin B). Media and all media supplements were purchased from Gibco, Australia, except FBS that was from Sigma, USA.
(§2) Peripheral blood leukocytes (PBL) were obtained from venous blood of healthy volunteers by sedimentation on 2% dextran T-500 (Amersham Biosciences, USA) and subsequent centrifugations of leukocyte-rich plasma.
(§3) Peripheral blood leukocytes (PBL), isolated as described above, were seeded in a 48-well plate at a concentration of 3-5×10^6 cell per well in culture medium consisting of RPMI 1640 medium (Institute of Immunology, Croatia) supplemented with 10% heat-inactivated fetal calf serum (FCS, Biowhittaker, USA), 100 U/ml penicillin (Gibco, Australia), 100 μg/ml streptomycin (Gibco, Australia) and 2 mM L-glutamine (Gibco, Australia), and preincubated with the tested compounds for 2 h at 37° C., in an atmosphere of 5% CO2, and 90% humidity. Afterwards, stimuli (Sigma, USA) were added to a final concentration of 2 μg/mL lipopolysaccharide (LPS), 1 μg/mL phorbol 12-myristate 13-acetate (PMA) or 120 μg/mL zymosan. Samples were incubated overnight under conditions described above. At the end of incubation supernatants were transferred to eppendorf tubes and centrifuged for 10 min at 1500 g. Concentrations of human TNF-α, IL-1β, IL-6 and IL-8 were determined in cell supernatants by sandwich ELISA, using capture and detection antibodies (R&D, USA) according to manufacturer's recommendations.
(§4) Inhibition (as percentage) was calculated using the following formula: % inhibition=(1−concentration of cytokines in sample/concentration of cytokines in positive control)×100 where “positive control” refers to stimulated samples not treated with substances.

human IL-1β = experiment: Inhibition of IL-1β production by stimulated human peripheral blood leukocytes in vitro (ELISA); conditions: Homo sapiens, Leukocyte, PBL, read-out: Percentage of inhibition of IL-1β production; for inhibition at 10 µM: compound 10 μM; for inhibition at 50 µM: compound 50 μM
Method: as §1, §2, §3, §4

human IL-6 = experiment: Inhibition of IL-6 production by stimulated human peripheral blood leukocytes in vitro (ELISA); conditions: Homo sapiens, Leukocyte, PBL, read-out: Percentage of inhibition of IL-6 production; for inhibition at 10 µM: compound 10 μM; for inhibition at 50 µM: compound 50 μM
Method: as §1, §2, §3, §4

human IL-8 = experiment: Inhibition of IL-8 production by stimulated human peripheral blood leukocytes in vitro (ELISA); conditions: Homo sapiens, Leukocyte, PBL, read-out: Percentage of inhibition of IL-8 production; for inhibition at 10 µM: compound 10 μM; for inhibition at 50 µM: compound 50 μM
Method: as §1, §2, §3, §4

A549 = conditions: human, 24 h
Method: (§5) Anti-inflammatory activity of compounds, i.e. observed inhibition of cytokine production and inhibition of proliferation in vitro, is not a consequence of their cytotoxicity.
(§6) Measurement of the succinate dehydrogenase activity in living cells was performed in order to assess the cytotoxicity of compounds of the invention. Cells were cultured for 24 hours in RPMI medium as described above at 37° C., in the presence of the tested compounds at concentrations of 50 μM and 12.5 μM. Afterwards, MTT [3-(4,5-dimethylthiazole-2-yl)-2,5-diphenyl tetrazolium bromide] (Promega, USA) as detection reagent was added and incubated for 0.5-2 hours. The amount of produced MTT-Formazan was determined spectrophotometrically at 490 nm (Mosmann, J. Immunol. Methods, 1983, 65: 55-63).
(§7) Percentage of viable cells was calculated using the following formula: % viable cells=[…]

Hep G2 = conditions: human, 24 h
Method: as §5, §6, §7

THP-1 = conditions: human, 24 h
Method: as §5, §6, §7

SMILES	inhibition at 10 µM (human TNF-α; LPS stimulation)	inhibition at 50 µM (human TNF-α; LPS stimulation)	inhibition at 10 µM (human TNF-α; PMA stimulation)	inhibition at 50 µM (human TNF-α; PMA stimulation)	inhibition at 10 µM (human TNF-α; zymosan stimulation)	inhibition at 50 µM (human TNF-α; zymosan stimulation)	inhibition at 10 µM (human IL-1β; LPS stimulation)	inhibition at 50 µM (human IL-1β; LPS stimulation)	inhibition at 10 µM (human IL-1β; PMA stimulation)	inhibition at 50 µM (human IL-1β; PMA stimulation)	inhibition at 10 µM (human IL-1β; zymosan stimulation)	inhibition at 50 µM (human IL-1β; zymosan stimulation)	inhibition at 10 µM (human IL-6; LPS stimulation)	inhibition at 50 µM (human IL-6; LPS stimulation)	inhibition at 10 µM (human IL-6; PMA stimulation)	inhibition at 50 µM (human IL-6; PMA stimulation)	inhibition at 10 µM (human IL-6; zymosan stimulation)	inhibition at 50 µM (human IL-6; zymosan stimulation)	inhibition at 10 µM (human IL-8; LPS stimulation)	inhibition at 50 µM (human IL-8; LPS stimulation)	also measured
C=CC(=O)O[C@H]1[C@H](C)[C@@H](O[C@@H]2O[C@H](C)C[C@H](N(C)C)[C@H]2O)[C@](C)(OC)C[C@@H](C)C(=O)[C@H](C)[C@@H](O)[C@](C)(O)[C@@H](CC)OC(=O)[C@@H]1C [Example 4, 3-O-Propenoyl-3-O-decladinosyl-6-O-methyl-erythromycin A]	0%	100%	69%	100%	0%	100%	75%	100%	97%	100%	61%	100%	37%	100%	96%	100%	55%	100%	29%	100%	inhibition at 10 µM (human IL-8; PMA stimulation): 55%; inhibition at 50 µM (human IL-8; PMA stimulation): 90%; inhibition at 10 µM (human IL-8; zymosan stimulation): 10%; inhibition at 50 µM (human IL-8; zymosan stimulation): 100%; Percentage of viable cells after treatment (A549; 12.5 μM): >95%; Percentage of viable cells after treatment (A549; 50 μM): >95%; Percentage of viable cells after treatment (Hep G2; 12.5 μM): >85%; Percentage of viable cells after treatment (Hep G2; 50 μM): >95%; Percentage of viable cells after treatment (THP-1; 12.5 μM): 100%; Percentage of viable cells after treatment (THP-1; 50 μM): 100%
CC[C@H]1OC(=O)[C@H](C)[C@@H](OC(=O)CCN(CC)CC)[C@H](C)[C@@H](O[C@@H]2O[C@H](C)C[C@H](NC)[C@@H]2O)[C@](C)(OC)C[C@@H](C)C(=O)N[C@H](C)[C@@H](O)[C@]1(C)O [Example 10, 3-O-(3-Diethylamino-propionyl)-3-O-decladinosyl-3′-N-demethyl-6-O-methyl-9a-aza-9a-homoerythromycin A]	6%	65%	68%	78%	10%	75%	70%	88%	80%	94%	78%	100%	35%	92%	69%	92%	40%	100%	13%	77%	inhibition at 10 µM (human IL-8; PMA stimulation): 23%; inhibition at 50 µM (human IL-8; PMA stimulation): 76%; inhibition at 10 µM (human IL-8; zymosan stimulation): 6%; inhibition at 50 µM (human IL-8; zymosan stimulation): 82%; Percentage of viable cells after treatment (A549; 12.5 μM): >80%; Percentage of viable cells after treatment (A549; 50 μM): >90%; Percentage of viable cells after treatment (Hep G2; 12.5 μM): 100%; Percentage of viable cells after treatment (Hep G2; 50 μM): 100%; Percentage of viable cells after treatment (THP-1; 12.5 μM): 100%; Percentage of viable cells after treatment (THP-1; 50 μM): 100%
CC[C@H]1OC(=O)[C@H](C)[C@@H](OC(=O)CCN2CCCN(CCCN3CCCC3)CC2)[C@H](C)[C@@H](O[C@@H]2O[C@H](C)C[C@H](N(C)C)[C@H]2O)[C@](C)(OC)C[C@@H](C)C(=O)N[C@H](C)[C@@H](O)[C@]1(C)O [Example 24, 6-O-Methyl-3-O-decladinosyl-3-O{3-[4-(3-Pyrrolidin-1-yl-propyl)-[1,4]diazepan-1-yl]-propionyl}-9a-aza-9a-homoerythromycin A]	0%	91%	65%	68%	0%	92%	65%	98%	84%	98%	70%	100%	8%	98%	48%	89%	33%	100%	0%	94%	inhibition at 10 µM (human IL-8; PMA stimulation): 3%; inhibition at 50 µM (human IL-8; PMA stimulation): 81%; inhibition at 10 µM (human IL-8; zymosan stimulation): 0%; inhibition at 50 µM (human IL-8; zymosan stimulation): 92%; Percentage of viable cells after treatment (A549; 12.5 μM): >90%; Percentage of viable cells after treatment (A549; 50 μM): >90%; Percentage of viable cells after treatment (Hep G2; 12.5 μM): >95%; Percentage of viable cells after treatment (Hep G2; 50 μM): 100%; Percentage of viable cells after treatment (THP-1; 12.5 μM): 100%; Percentage of viable cells after treatment (THP-1; 50 μM): 100%
CC[C@H]1OC(=O)[C@H](C)[C@@H](OC(=O)CCN(C)CCO)[C@H](C)[C@@H](O[C@@H]2O[C@H](C)C[C@H](N(C)C)[C@H]2O)[C@](C)(OC)C[C@@H](C)C(=O)N[C@H](C)[C@@H](O)[C@]1(C)O [Example 23, 6-O-Methyl-3-O-decladinosyl-3-O-{3-[(2-Hydroxy-ethyl)-methyl-amino]-propionyl}-9a-aza-9a-homoerythromycin A]	0%	97%	58%	79%	0%	96%	73%	100%	81%	98%	70%	100%	8%	100%	51%	92%	26%	100%	0%	95%	inhibition at 10 µM (human IL-8; PMA stimulation): 0%; inhibition at 50 µM (human IL-8; PMA stimulation): 90%; inhibition at 10 µM (human IL-8; zymosan stimulation): 0%; inhibition at 50 µM (human IL-8; zymosan stimulation): 98%; Percentage of viable cells after treatment (A549; 12.5 μM): 100%; Percentage of viable cells after treatment (A549; 50 μM): >95%; Percentage of viable cells after treatment (Hep G2; 12.5 μM): 100%; Percentage of viable cells after treatment (Hep G2; 50 μM): 100%; Percentage of viable cells after treatment (THP-1; 12.5 μM): 100%; Percentage of viable cells after treatment (THP-1; 50 μM): 100%
